The target of test [1] is 5-hydroxytryptamine receptor 1D (Homo sapiens, UniProt P28221). Description: Binding affinity towards cloned human 5-hydroxytryptamine 1D receptor alpha was determined.
The target in test [2] is T1, 5-hydroxytryptamine receptor 1A (Homo sapiens, UniProt P08908).
T1 sequence (P08908 whole entry): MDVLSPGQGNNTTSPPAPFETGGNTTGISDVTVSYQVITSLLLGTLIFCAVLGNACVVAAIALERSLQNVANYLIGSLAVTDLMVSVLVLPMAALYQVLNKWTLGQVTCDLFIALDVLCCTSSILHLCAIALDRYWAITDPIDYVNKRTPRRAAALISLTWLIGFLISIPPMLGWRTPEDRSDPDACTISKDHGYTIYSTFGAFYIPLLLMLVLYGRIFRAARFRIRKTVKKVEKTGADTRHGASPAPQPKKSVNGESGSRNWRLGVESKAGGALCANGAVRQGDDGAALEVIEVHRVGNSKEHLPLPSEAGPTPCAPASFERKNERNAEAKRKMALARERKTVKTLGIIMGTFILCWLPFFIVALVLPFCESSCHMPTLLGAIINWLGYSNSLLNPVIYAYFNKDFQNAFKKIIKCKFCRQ
Put plainly: Compound was tested for its ability to inhibit forskolin-stimulated activity of adenylate cyclase coupled to human 5-HT 1A receptor in HeLa cells; value ranges from 85-370. The test is classed as functional, cell-based.

In test [3] the target is T1, 5-hydroxytryptamine receptor 1A. Put plainly: Binding affinity towards cloned human 5-hydroxytryptamine 1A receptor was determined.
For test [4], the target named is 5-hydroxytryptamine receptor 1D (Cavia porcellus, UniProt Q60484). Put plainly: Binding affinity towards guinea pig 5-hydroxytryptamine 1D receptor was determined.
Sequence of 5-hydroxytryptamine receptor 1D (Cavia porcellus, UniProt Q60484) (Q60484 whole entry): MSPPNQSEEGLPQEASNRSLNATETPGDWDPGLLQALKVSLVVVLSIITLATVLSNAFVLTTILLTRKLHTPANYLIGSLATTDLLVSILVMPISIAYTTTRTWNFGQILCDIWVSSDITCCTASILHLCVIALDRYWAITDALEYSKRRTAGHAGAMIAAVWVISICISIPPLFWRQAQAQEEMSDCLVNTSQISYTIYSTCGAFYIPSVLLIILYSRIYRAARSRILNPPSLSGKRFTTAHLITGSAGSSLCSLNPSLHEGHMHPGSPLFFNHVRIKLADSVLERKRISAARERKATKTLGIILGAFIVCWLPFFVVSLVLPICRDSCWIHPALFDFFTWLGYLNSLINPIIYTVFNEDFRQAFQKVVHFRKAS
The target of test [5] is Serotonin 2 (5-HT2) receptor (Homo sapiens, UniProt P41595+P28223+P28335). Description: Compound was tested for its affinity towards 5-hydroxytryptamine 2 receptor. The test is classed as protein assay.
The target in test [6] is T2, Muscarinic acetylcholine receptor M4 (Homo sapiens, UniProt P08173).
T2 sequence (P08173 whole entry): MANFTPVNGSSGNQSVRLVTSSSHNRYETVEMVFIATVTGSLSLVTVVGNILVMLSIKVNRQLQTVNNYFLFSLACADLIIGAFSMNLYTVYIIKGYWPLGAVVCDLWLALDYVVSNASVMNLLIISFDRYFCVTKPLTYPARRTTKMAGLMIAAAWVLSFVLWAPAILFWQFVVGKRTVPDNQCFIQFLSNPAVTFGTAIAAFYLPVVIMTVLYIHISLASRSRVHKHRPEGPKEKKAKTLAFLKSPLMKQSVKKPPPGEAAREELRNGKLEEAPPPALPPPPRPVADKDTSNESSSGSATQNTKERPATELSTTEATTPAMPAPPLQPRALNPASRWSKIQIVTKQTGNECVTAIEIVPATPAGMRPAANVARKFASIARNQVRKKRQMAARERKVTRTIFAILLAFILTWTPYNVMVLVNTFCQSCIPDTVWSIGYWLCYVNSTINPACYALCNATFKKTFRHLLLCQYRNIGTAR
Put plainly: Compound was tested for its affinity towards muscarinic (M) receptor.

A further test deals with Histamine H1 receptor (Homo sapiens, UniProt P35367). Put plainly: Compound was tested for its affinity towards histaminergic (H 1) receptor.
Sequence of Histamine H1 receptor (P35367 whole entry): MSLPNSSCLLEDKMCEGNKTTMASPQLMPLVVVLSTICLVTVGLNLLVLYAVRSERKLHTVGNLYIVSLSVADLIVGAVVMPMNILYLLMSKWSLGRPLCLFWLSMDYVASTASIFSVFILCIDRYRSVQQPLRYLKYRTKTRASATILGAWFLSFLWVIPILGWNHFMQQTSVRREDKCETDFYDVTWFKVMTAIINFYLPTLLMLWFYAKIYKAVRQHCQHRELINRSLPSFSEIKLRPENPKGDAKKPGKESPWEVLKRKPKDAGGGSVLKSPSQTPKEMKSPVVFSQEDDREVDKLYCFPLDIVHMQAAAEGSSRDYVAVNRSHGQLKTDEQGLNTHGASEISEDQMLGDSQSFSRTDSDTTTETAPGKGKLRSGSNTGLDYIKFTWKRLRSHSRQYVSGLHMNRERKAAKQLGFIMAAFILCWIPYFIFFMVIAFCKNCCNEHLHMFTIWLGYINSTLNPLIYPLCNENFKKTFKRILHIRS
Test [7] concerns the target Serotonin 3 (5-HT3) receptor. Put plainly: (§1) Compound was tested for its affinity towards 5-hydroxytryptamine 3 receptor. The test is classed as protein-complex assay.
Test [8] has as its target T3, 5-hydroxytryptamine receptor 2C (Rattus norvegicus, UniProt P08909).
T3 sequence (P08909 whole entry): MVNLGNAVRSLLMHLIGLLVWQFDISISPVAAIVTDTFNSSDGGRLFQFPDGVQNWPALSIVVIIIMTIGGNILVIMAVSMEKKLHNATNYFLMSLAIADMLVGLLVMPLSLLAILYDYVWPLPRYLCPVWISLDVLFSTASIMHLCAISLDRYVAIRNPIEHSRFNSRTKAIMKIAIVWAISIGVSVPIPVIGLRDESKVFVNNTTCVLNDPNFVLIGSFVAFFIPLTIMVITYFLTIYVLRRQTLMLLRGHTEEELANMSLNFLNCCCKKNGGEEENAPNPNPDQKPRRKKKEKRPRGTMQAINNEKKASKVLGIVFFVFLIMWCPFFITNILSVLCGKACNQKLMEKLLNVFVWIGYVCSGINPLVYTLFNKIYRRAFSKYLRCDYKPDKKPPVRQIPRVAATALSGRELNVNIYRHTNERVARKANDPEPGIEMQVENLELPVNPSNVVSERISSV
Description: (§2) Compound was tested for its affinity towards 5-hydroxytryptamine 1C receptor.

The target in test [9] is T4, Adrenergic receptor alpha-1 (Homo sapiens, UniProt P35348+P25100+P35368).
T4 sequence (P35348 whole entry): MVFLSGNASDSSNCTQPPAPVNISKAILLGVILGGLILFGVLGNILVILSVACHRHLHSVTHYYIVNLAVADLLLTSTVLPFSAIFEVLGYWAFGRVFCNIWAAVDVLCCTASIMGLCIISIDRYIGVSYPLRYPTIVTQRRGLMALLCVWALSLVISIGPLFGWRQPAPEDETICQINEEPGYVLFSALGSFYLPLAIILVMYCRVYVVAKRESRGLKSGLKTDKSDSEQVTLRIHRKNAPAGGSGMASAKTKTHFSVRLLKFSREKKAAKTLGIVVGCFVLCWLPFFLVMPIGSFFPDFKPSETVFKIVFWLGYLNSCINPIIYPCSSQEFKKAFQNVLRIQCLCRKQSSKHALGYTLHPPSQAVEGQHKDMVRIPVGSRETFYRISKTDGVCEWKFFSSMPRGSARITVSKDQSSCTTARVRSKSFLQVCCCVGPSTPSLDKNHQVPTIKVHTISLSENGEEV
T4 sequence (P25100 whole entry): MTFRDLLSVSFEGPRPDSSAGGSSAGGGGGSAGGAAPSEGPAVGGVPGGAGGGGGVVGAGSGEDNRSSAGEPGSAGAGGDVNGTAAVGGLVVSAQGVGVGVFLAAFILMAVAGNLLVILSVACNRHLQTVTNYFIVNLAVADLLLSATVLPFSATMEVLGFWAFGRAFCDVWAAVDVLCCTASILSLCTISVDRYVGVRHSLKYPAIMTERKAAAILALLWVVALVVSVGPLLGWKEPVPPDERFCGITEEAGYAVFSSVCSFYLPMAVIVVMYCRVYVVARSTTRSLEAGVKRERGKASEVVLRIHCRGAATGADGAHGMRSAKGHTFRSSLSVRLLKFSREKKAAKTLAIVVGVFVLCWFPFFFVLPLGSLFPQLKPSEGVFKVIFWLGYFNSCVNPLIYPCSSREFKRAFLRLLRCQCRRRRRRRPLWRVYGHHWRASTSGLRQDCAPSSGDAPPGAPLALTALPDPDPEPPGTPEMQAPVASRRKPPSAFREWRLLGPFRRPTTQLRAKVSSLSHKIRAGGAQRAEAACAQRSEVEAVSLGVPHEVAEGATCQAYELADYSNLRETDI
T4 sequence (P35368 whole entry): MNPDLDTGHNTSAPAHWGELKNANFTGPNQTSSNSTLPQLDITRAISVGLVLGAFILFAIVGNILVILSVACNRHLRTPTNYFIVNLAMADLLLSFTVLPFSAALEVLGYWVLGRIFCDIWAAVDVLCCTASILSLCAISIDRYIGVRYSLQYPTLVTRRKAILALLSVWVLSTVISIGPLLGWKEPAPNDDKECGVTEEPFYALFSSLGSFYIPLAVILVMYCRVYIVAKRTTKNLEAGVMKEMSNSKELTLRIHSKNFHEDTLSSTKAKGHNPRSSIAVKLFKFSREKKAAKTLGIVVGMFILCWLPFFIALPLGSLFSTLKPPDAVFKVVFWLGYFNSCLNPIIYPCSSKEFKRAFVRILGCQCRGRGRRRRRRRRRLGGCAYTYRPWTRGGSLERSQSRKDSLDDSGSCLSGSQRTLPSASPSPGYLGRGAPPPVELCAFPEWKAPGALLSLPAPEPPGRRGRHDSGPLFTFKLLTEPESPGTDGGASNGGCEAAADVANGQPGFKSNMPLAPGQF
Put plainly: Compound was tested for its affinity towards Alpha-1 adrenergic receptor. The test is classed as protein assay.

Test [10] concerns the target T1, 5-hydroxytryptamine receptor 1A. Put plainly: Compound was tested for its ability to inhibit forskolin-stimulated activity of adenylate cyclase coupled to human 5-hydroxytryptamine 1A receptor in HeLa cells; value ranges from 95-320. The test is classed as functional, cell-based.
Test [11] addresses T5, 5-hydroxytryptamine receptor 4 (Homo sapiens, UniProt Q13639). Description: Compound was tested for its affinity towards 5-hydroxytryptamine 4 receptor.
The target in the next test is D(2) dopamine receptor (Homo sapiens, UniProt P14416). Put plainly: Compound was tested for its affinity towards dopaminergic (D2) receptor.
Sequence of D(2) dopamine receptor (P14416 whole entry): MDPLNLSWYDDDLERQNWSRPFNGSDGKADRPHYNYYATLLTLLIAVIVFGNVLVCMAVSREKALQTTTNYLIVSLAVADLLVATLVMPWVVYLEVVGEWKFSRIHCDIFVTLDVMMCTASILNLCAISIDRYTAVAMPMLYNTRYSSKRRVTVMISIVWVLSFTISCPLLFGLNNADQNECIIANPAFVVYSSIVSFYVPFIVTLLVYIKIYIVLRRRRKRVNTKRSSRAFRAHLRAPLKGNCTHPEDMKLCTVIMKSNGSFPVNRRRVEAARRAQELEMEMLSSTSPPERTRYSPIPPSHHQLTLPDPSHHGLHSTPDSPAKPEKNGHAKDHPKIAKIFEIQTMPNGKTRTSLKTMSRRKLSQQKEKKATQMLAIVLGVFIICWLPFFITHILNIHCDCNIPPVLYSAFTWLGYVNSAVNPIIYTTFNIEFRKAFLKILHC
The species named for another test is Oryctolagus cuniculus. Put plainly: Compound was tested for its ability to contract rabbit saphenous vein. The test is classed as functional.
The target in test [12] is T5, 5-hydroxytryptamine receptor 4. Description: Compound was tested for its affinity towards 5-hydroxy tryptamine 4 receptor.
In test [13] the target is T6, 5-hydroxytryptamine receptor 3A (Homo sapiens, UniProt P46098).
T6 sequence (P46098 whole entry): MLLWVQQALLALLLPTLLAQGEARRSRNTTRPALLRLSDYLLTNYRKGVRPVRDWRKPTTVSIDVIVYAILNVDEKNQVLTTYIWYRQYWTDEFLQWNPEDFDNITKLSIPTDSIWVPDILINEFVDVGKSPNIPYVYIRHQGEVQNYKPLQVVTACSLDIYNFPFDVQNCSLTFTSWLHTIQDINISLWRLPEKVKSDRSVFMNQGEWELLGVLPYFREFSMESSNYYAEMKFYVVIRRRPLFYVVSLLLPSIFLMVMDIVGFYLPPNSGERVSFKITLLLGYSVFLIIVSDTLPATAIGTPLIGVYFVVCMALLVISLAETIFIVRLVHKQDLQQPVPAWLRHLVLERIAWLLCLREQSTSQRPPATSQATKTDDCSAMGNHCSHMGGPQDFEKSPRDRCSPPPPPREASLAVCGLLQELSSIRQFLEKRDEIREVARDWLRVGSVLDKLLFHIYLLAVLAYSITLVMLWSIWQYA
The test is described as §1.

Test [14] has as its target T7, 5-hydroxytryptamine receptor 2C (Homo sapiens, UniProt P28335).
T7 sequence (P28335 whole entry): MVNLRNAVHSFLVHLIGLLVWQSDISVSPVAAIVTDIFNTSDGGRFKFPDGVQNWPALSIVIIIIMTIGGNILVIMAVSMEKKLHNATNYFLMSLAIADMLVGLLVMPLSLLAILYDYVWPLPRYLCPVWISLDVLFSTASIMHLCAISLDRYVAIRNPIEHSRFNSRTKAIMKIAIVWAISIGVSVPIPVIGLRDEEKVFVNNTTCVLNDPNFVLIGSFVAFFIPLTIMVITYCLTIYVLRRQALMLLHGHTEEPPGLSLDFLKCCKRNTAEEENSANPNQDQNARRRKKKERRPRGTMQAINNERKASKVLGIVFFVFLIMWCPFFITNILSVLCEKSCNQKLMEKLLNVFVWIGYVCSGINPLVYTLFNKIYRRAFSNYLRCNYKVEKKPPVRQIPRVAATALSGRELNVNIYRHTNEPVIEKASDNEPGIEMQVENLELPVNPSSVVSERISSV
Described as §2.

Sequence of 5-hydroxytryptamine receptor 1D (Homo sapiens, UniProt P28221) (P28221 whole entry): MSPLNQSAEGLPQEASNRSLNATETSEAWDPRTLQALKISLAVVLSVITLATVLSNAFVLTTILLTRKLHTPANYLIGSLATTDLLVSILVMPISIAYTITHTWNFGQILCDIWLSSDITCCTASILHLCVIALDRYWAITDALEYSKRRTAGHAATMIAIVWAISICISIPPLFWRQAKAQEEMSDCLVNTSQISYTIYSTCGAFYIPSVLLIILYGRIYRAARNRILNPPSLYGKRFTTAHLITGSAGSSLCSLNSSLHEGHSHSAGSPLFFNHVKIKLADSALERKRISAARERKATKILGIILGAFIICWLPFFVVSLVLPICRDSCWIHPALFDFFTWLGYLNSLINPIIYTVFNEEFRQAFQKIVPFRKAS
T5 sequence (Q13639 whole entry): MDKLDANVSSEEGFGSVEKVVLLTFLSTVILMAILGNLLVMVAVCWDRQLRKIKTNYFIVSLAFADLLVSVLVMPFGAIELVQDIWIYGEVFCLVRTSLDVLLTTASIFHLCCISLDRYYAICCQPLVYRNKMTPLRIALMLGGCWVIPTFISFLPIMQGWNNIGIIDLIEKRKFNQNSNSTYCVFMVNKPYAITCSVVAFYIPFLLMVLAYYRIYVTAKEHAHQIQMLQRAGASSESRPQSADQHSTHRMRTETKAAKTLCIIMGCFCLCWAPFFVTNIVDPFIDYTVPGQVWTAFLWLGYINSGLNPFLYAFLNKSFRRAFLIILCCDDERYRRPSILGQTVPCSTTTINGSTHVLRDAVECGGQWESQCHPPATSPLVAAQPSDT

On to `COc1cccc(N2CCN(C(=O)COc3ccc4[nH]cc(CCN)c4c3)CC2)c1`, for which the results for the Ki in test [1] and in [3] were 0.002 µM and 0.0098 µM, respectively. Also, a half-maximal effect in test [2] (EC50) was put at 0.085 µM.

On to `NCCc1c[nH]c2ccc(OCC(=O)NCC(=O)N[C@@H](Cc3ccc(O)cc3)C(N)=O)cc12`, for which the IC50 (commonly the concentration at which inhibition is half-maximal) in test [4] came out at 0.06 µM.

Consider `NCCc1c[nH]c2ccc(OCC(=O)N3CCN(c4cccc5ccccc45)CC3)cc12`, for which the half-inhibitory concentration (IC50) (in [5]; in test [6]; at Histamine H1 receptor; in test [7]; in [8]; in [9]) was over 1 µM in each case. Besides, the concentration for half-maximal inhibition (IC50) (in [11]; against D(2) dopamine receptor) was over 1 µM throughout. The inhibitory constant (Ki) (in general, the dissociation constant of the complex between target and ligand, obtained from inhibition or displacement) in test [1] was 0.00095 µM; in test [3], 0.0089 µM. For the same compound, in test [10], it took 0.095 µM to reach a half-maximal effect (EC50).

`NCCc1c[nH]c2ccc(OCC(=O)N3CCN(c4ccccc4)CC3)cc12`: the pD2 in the test listed under Oryctolagus cuniculus is reported as 7.36.

With `Cc1ccccc1N1CCN(C(=O)COc2ccc3[nH]cc(CCN)c3c2)CC1`, the IC50 (in test [5]; in [6]; in test [12]; against Histamine H1 receptor; in test [13]; in [14]) was over 10 µM throughout. In addition, the 50% inhibitory concentration (IC50) (in test [9]; against D(2) dopamine receptor) was over 10 µM each time.

For `CNS(=O)(=O)Cc1ccc2[nH]cc(CCN(C)C)c2c1`, the pD2 in the test listed under Oryctolagus cuniculus is reported as 5.75.

Values taken from ChEMBL document CHEMBL1128860, “5-O-Carboxymethyl piperazide derivatives of serotonin: a new class of potent and selective 5-HT1D receptor agonists” (Bioorg Med Chem Lett, 1995).
